Experimental findings from ChEMBL document CHEMBL4706559, “New indolylarylsulfone non-nucleoside reverse transcriptase inhibitors show low nanomolar inhibition of single and double HIV-1 mutant strains” (Eur J Med Chem, 2020) are described below.

In data set [1] the test system is Human immunodeficiency virus 1. The data set is described as follows: Inhibition of HIV1 p66/p51 reverse transcriptase K103N/Y181C double mutant assessed as apparent Km of substrate at 150 nM using fixed concentration of poly(rA)/oligo(dT) as templates in presence of 2 to 100 uM of [3H]dTTP by Michaelis-Menten analysis (reference value: 9.2 +/- 1.4 uM).
Data set [2] relates to Human immunodeficiency virus 1. Nature of the data set: Binding affinity to free form of HIV-1 p66/p51 reverse transcriptase K103N/Y181C double mutant assessed as dissociation constant using poly(rA)/oligo(dT) as templates in presence of [3H]dTTP.
The test system of data set [3] is Human immunodeficiency virus 1. The data set is described as follows: Inhibition of HIV1 p66/p51 reverse transcriptase K103N/Y181C double mutant assessed as apparent Km of substrate at 75 nM using fixed concentration of poly(rA)/oligo(dT) as templates in presence of 2 to 100 uM of [3H]dTTP by Michaelis-Menten analysis (reference value: 9.2 +/- 1.4 uM).
Data set [4] can be described thus: Binding affinity to HIV-1 p66/p51 reverse transcriptase K103N/Y181C double mutant/nucleic acid binary complex using poly(rA)/oligo(dT) as templates in presence of [3H]dTTP. On the set-up: species or system Human immunodeficiency virus 1.
The subject of data set [5] is Human immunodeficiency virus 1. Nature of the data set: Binding affinity to HIV-1 p66/p51 reverse transcriptase K103N/Y181C double mutant/nucleic acid/dTTP ternary complex assessed as association constant using poly(rA)/oligo(dT) as templates in presence of [3H]dTTP.
Data set [6] has as its system Human immunodeficiency virus 1. The data set is described as follows: Inhibition of HIV1 p66/p51 reverse transcriptase K103N/Y181C double mutant assessed as apparent Vmax at 300 nM using fixed concentration of poly(rA)/oligo(dT) as templates in presence of 2 to 100 uM of [3H]dTTP by Michaelis-Menten analysis (reference value: 9.6 +/- 0.4%).
Data set [7] relates to Human immunodeficiency virus 1. Nature of the data set: Ratio of Kon of HIV-1 p66/p51 reverse transcriptase K103N/Y181C double mutant/nucleic acid/dTTP ternary complex to Kon of free form of HIV-1 p66/p51 reverse transcriptase using poly(rA)/oligo(dT) as templates in presence of [3H]dTTP.
The test system of data set [8] is Human immunodeficiency virus 1. Nature of the data set: Binding affinity to HIV-1 p66/p51 reverse transcriptase K103N/Y181C double mutant/nucleic acid/dTTP ternary complex assessed as dissociation constant using poly(rA)/oligo(dT) as templates in presence of [3H]dTTP.
For data set [9], the target named is Human immunodeficiency virus type 1 reverse transcriptase (Human immunodeficiency virus 1) (UniProt Q72547). Nature of the data set: Ratio of Kon of wild type HIV-1 p66/p51 reverse transcriptase/nucleic acid binary complex to Kon of free form of wild type HIV-1 p66/p51 reverse transcriptase using poly(rA)/oligo(dT) as templates in presence of [3H]dTTP.
The subject of data set [10] is Human immunodeficiency virus 1. The data set is described as follows: Ratio of Koff of HIV-1 p66/p51 reverse transcriptase K103N/Y181C double mutant/nucleic acid/dTTP ternary complex to Koff of free form of HIV-1 p66/p51 reverse transcriptase using poly(rA)/oligo(dT) as templates in presence of [3H]dTTP.
The test system of data set [11] is Human immunodeficiency virus 1. The data set is described as follows: Inhibition of HIV1 p66/p51 reverse transcriptase K103N/Y181C double mutant assessed as apparent Vmax at 75 nM using 10 to 500 uM poly(rA)/oligo(dT) as templates in presence of fixed concentration of [3H]dTTP by Michaelis-Menten analysis (reference value: 12 +/- 1%).
The nature of data set [12]: Cytotoxicity against human MT-4 cells assessed as reduction in cell viability by MTT assay. Format: cell-based, MT4. A general note: Formazan colour is commonly taken as a measure of viable cells.
Data set [13] relates to Human immunodeficiency virus 1. The data set is described as follows: Inhibition of HIV1 p66/p51 reverse transcriptase K103N/Y181C double mutant assessed as apparent Km of substrate at 300 nM using […] as templates in presence of fixed concentration of [3H]dTTP by Michaelis-Menten analysis (reference value: 106+/- 16 nM).
In data set [14] the test system is Human immunodeficiency virus 1. The data set is described as follows: Antiviral activity against wild type HIV-1 P1 infected in human C8166 cells assessed as reduction in viral p24 antigen production at 25 nM. Format: functional. To be noted: Human immunodeficiency virus 1, P1, C8166.
Data set [15] deals with Human immunodeficiency virus 1. Nature of the data set: Synergistic inhibition of wild type HIV-1 p66/p51 reverse transcriptase assessed as combination index using poly(rA)/oligo(dT) as templates in presence of [3H]dTTP preincubated enzyme with nucleic acid followed by addition of AZTTP and subsequent incubation with compound and dTTP.
Data set [16] concerns Human immunodeficiency virus 1. The data set is described as follows: Inhibition of HIV1 p66/p51 reverse transcriptase K103N/Y181C double mutant assessed as apparent Vmax at 150 nM using fixed concentration of poly(rA)/oligo(dT) as templates in presence of 2 to 100 uM of [3H]dTTP by Michaelis-Menten analysis (reference value: 9.6 +/- 0.4%).
Data set [17] concerns Human immunodeficiency virus 1. Nature of the data set: Inhibition of HIV1 p66/p51 reverse transcriptase K103N/Y181C double mutant assessed as apparent Vmax at 150 nM using 10 to 500 uM poly(rA)/oligo(dT) as templates in presence of fixed concentration of [3H]dTTP by Michaelis-Menten analysis (reference value: 12 +/- 1%).
The test system of data set [18] is Human immunodeficiency virus 1. The data set is described as follows: Synergistic inhibition of HIV-1 p66/p51 reverse transcriptase K103N/Y181C double mutant assessed as combination index using poly(rA)/oligo(dT) as templates in presence of [3H]dTTP preincubated enzyme with nucleic acid followed by addition of AZTTP and subsequent incubation with compound and dTTP.

In data set [19] the test system is Human immunodeficiency virus 1. Nature of the data set: Inhibition of HIV1 p66/p51 reverse transcriptase K103N/Y181C double mutant assessed as apparent Vmax at 75 nM using fixed concentration of poly(rA)/oligo(dT) as templates in presence of 2 to 100 uM of [3H]dTTP by Michaelis-Menten analysis (reference value: 9.6 +/- 0.4%).
Data set [20] has as its target Human immunodeficiency virus type 1 reverse transcriptase (Human immunodeficiency virus 1) (UniProt Q72547). The data set is described as follows: Ratio of Koff of wild type HIV-1 p66/p51 reverse transcriptase/nucleic acid binary complex to Koff of free form of wild type HIV-1 p66/p51 reverse transcriptase using poly(rA)/oligo(dT) as templates in presence of [3H]dTTP.

Data set [21] relates to Human immunodeficiency virus 1. The data set is described as follows: Synergistic inhibition of HIV-1 p66/p51 reverse transcriptase K103N/Y181C double mutant assessed as combination index using poly(rA)/oligo(dT) as templates in presence of [3H]dTTP preincubated with enzyme and AZTTP followed by substrate addition. Format: functional.
Data set [22] relates to Human immunodeficiency virus 1. Nature of the data set: Ratio of Kon of HIV-1 p66/p51 reverse transcriptase K103N/Y181C double mutant/nucleic acid/dTTP ternary complex to Kon of HIV-1 p66/p51 reverse transcriptase/nucleic acid binary complex using poly(rA)/oligo(dT) as templates in presence of [3H]dTTP.
Data set [23] concerns the target Human immunodeficiency virus type 1 reverse transcriptase (Human immunodeficiency virus 1) (UniProt Q72547). Nature of the data set: Binding affinity to wild type HIV-1 p66/p51 reverse transcriptase/nucleic acid binary complex assessed as dissociation constant using poly(rA)/oligo(dT) as templates in presence of [3H]dTTP.
Data set [24] deals with Human immunodeficiency virus type 1 reverse transcriptase (Human immunodeficiency virus 1, UniProt Q72547). Nature of the data set: Inhibition of RNA-dependent DNA polymerase activity of wild type recombinant HIV-1 His-tagged p66/p51 reverse transcriptase assessed as inhibition of [3H]dTTP incorporation using poly(rA)/oligo(dT) as templates incubated for 15 mins by MicroBeta scintillation counting method.

What is called Km is the substrate concentration at which the rate is half of its maximum. In general, Ki refers to the dissociation constant of the complex between target and ligand, obtained from inhibition or displacement. By CC50 is commonly meant the concentration giving 50% cytotoxicity. A word on the inhibition: it is the share of the control response that was lost under treatment. The IC50 is the concentration needed to halve the response being measured. Consider `Cc1cc(C)cc(S(=O)(=O)c2c(C(=O)NCc3ccccc3O)[nH]c3ccc(Cl)cc23)c1`, for which the Km was 2.2 µM in data set [1], 5.8 µM in data set [3] and 0.104 µM in [13]. Besides, the K in [2] is 14 10^-3/s; in data set [5], 42 10^-5/nM/s; in data set [8] it was 33 10^-3/s; in [23], 35 10^-3/s. Moreover, in [4], the inhibition constant Ki was found to be 0.086 µM. For the same compound, the Vmax(app) in [6] was determined as 1.5%; in data set [11] it was 7.7%; in [16], 2.9%; in data set [17], 6%; in data set [19], 6.2%. Further, the Ratio in data set [7] is 4; in data set [9], 7; in [10] it was 4; in data set [20] it was 8; in data set [22], 4. Moreover, in data set [12], the CC50 came to 23.8 µM. Also, the inhibition at 0.025 µM in [14] is 100%. In addition, the CI turned out to be 0.75 in [15], 0.6 in [18] and 0.81 in data set [21]. Further, the IC50 in data set [24] is 0.083 µM.
